Experimental data reported in ChEMBL document CHEMBL2150993, “Substituted thiazoles VII. Synthesis and antitumor activity of certain 2-(substituted amino)-4-phenyl-1,3-thiazole analogs” (2012).

What was measured:
Type in all cases: functional
Details in all cases: at 10 µM
[1] = tested on: CCRF-CEM; assay: Growth inhibition of human CCRF-CEM cells after 48 hrs by cell counting analysis
[2] = tested on: HL-60; assay: Growth inhibition of human HL60 cells after 48 hrs by cell counting analysis
[3] = tested on: K562; assay: Growth inhibition of human K562 cells after 48 hrs by cell counting analysis
[4] = tested on: RPMI-8226; assay: Growth inhibition of human RPMI8226 cells after 48 hrs by cell counting analysis
[5] = tested on: SR; assay: Growth inhibition of human SR cells after 48 hrs by cell counting analysis
[6] = tested on: A549; assay: Growth inhibition of human A549 cells after 48 hrs by cell counting analysis
[7] = tested on: EKVX; assay: Growth inhibition of human EKVX cells after 48 hrs by cell counting analysis
[8] = tested on: HOP-62; assay: Growth inhibition of human HOP62 cells after 48 hrs by cell counting analysis
[9] = tested on: HOP-92; assay: Growth inhibition of human HOP92 cells after 48 hrs by cell counting analysis
[10] = tested on: NCI-H226; assay: Growth inhibition of human NCI-H226 cells after 48 hrs by cell counting analysis
[11] = tested on: NCI-H23; assay: Growth inhibition of human NCI-H23 cells after 48 hrs by cell counting analysis
[12] = Growth inhibition of human NCI-322M cells after 48 hrs by cell counting analysis
[13] = tested on: NCI-H522; assay: Growth inhibition of human NCI-H522 cells after 48 hrs by cell counting analysis
[14] = tested on: HCC 2998; assay: Growth inhibition of human HCC2998 cells after 48 hrs by cell counting analysis
[15] = tested on: HCT-15; assay: Growth inhibition of human HCT15 cells after 48 hrs by cell counting analysis
[16] = tested on: HT-29; assay: Growth inhibition of human HT-29 cells after 48 hrs by cell counting analysis
[17] = tested on: KM12; assay: Growth inhibition of human KM12 cells after 48 hrs by cell counting analysis
[18] = tested on: SW-620; assay: Growth inhibition of human SW620 cells after 48 hrs by cell counting analysis
[19] = tested on: SF-268; assay: Growth inhibition of human SF268 cells after 48 hrs by cell counting analysis
[20] = tested on: SF-295; assay: Growth inhibition of human SF295 cells after 48 hrs by cell counting analysis
[21] = tested on: SF-539; assay: Growth inhibition of human SF539 cells after 48 hrs by cell counting analysis
[22] = tested on: SNB-19; assay: Growth inhibition of human SNB19 cells after 48 hrs by cell counting analysis
[23] = tested on: SNB-75; assay: Growth inhibition of human SNB75 cells after 48 hrs by cell counting analysis
[24] = tested on: U-251; assay: Growth inhibition of human U251 cells after 48 hrs by cell counting analysis
[25] = tested on: LOX IMVI; assay: Growth inhibition of human LOXIMVI cells after 48 hrs by cell counting analysis
[26] = tested on: Malme-3M; assay: Growth inhibition of human MALME-3M cells after 48 hrs by cell counting analysis
[27] = tested on: M14; assay: Growth inhibition of human M14 cells after 48 hrs by cell counting analysis
[28] = tested on: MDA-MB-435; assay: Growth inhibition of human MDA-MB-435 cells after 48 hrs by cell counting analysis
[29] = tested on: SK-MEL-2; assay: Growth inhibition of human SK-MEL-2 cells after 48 hrs by cell counting analysis
[30] = tested on: SK-MEL-28; assay: Growth inhibition of human SK-MEL-28 cells after 48 hrs by cell counting analysis
[31] = tested on: SK-MEL-5; assay: Growth inhibition of human SK-MEL-5 cells after 48 hrs by cell counting analysis
[32] = tested on: UACC-257; assay: Growth inhibition of human UACC257 cells after 48 hrs by cell counting analysis
[33] = tested on: UACC-62; assay: Growth inhibition of human UACC62 cells after 48 hrs by cell counting analysis
[34] = tested on: IGROV-1; assay: Growth inhibition of human IGROV1 cells after 48 hrs by cell counting analysis
[35] = tested on: OVCAR-3; assay: Growth inhibition of human OVCAR3 cells after 48 hrs by cell counting analysis
[36] = tested on: OVCAR-4; assay: Growth inhibition of human OVCAR4 cells after 48 hrs by cell counting analysis
[37] = tested on: OVCAR-5; assay: Growth inhibition of human OVCAR5 cells after 48 hrs by cell counting analysis
[38] = tested on: OVCAR-8; assay: Growth inhibition of human OVCAR8 cells after 48 hrs by cell counting analysis
[39] = Growth inhibition of human NCI-ADR-RES cells after 48 hrs by cell counting analysis
[40] = tested on: SK-OV-3; assay: Growth inhibition of human SKOV3 cells after 48 hrs by cell counting analysis
[41] = tested on: ACHN; assay: Growth inhibition of human ACHN cells after 48 hrs by cell counting analysis
[42] = tested on: CAKI-1; assay: Growth inhibition of human Caki1 cells after 48 hrs by cell counting analysis
[43] = tested on: RXF 393; assay: Growth inhibition of human RXF393 cells after 48 hrs by cell counting analysis
[44] = tested on: SN12C; assay: Growth inhibition of human SN12C cells after 48 hrs by cell counting analysis
[45] = tested on: TK-10; assay: Growth inhibition of human TK10 cells after 48 hrs by cell counting analysis
[46] = tested on: UO-31; assay: Growth inhibition of human UO31 cells after 48 hrs by cell counting analysis
[47] = tested on: PC-3; assay: Growth inhibition of human PC3 cells after 48 hrs by cell counting analysis
[48] = tested on: MCF7; assay: Growth inhibition of human MCF7 cells after 48 hrs by cell counting analysis
[49] = tested on: MDA-MB-231; assay: Growth inhibition of human MDA-MB-231 cells after 48 hrs by cell counting analysis
[50] = tested on: BT-549; assay: Growth inhibition of human BT549 cells after 48 hrs by cell counting analysis
[51] = tested on: T47D; assay: Growth inhibition of human T47D cells after 48 hrs by cell counting analysis
[52] = tested on: MDA-MB-468; assay: Growth inhibition of human MDA-MB-468 cells after 48 hrs by cell counting analysis
[53] = tested on: MOLT-4; assay: Growth inhibition of human MOLT4 cells after 48 hrs by cell counting analysis
[54] = tested on: HCT-116; assay: Growth inhibition of human HCT116 cells after 48 hrs by cell counting analysis

O=C(CN1CCN(c2ccccc2)CC1)Nc1nc(-c2ccc(Cl)cc2)cs1
growth inhibition (GI) [1]: <10% | growth inhibition (GI) [2]: <10% | growth inhibition (GI) [3]: <10% | growth inhibition (GI) [4]: <10% | growth inhibition (GI) [5]: <10% | growth inhibition (GI) [6]: <10% | growth inhibition (GI) [7]: <10% | growth inhibition (GI) [8]: 12.7% | growth inhibition (GI) [9]: 60.2% | growth inhibition (GI) [10]: <10% | growth inhibition (GI) [11]: <10% | growth inhibition (GI) [12]: <10% | growth inhibition (GI) [13]: <10% | growth inhibition (GI) [14]: <10% | growth inhibition (GI) [15]: <10% | growth inhibition (GI) [16]: <10% | growth inhibition (GI) [17]: <10% | growth inhibition (GI) [18]: <10% | growth inhibition (GI) [19]: <10% | growth inhibition (GI) [20]: <10% | growth inhibition (GI) [21]: <10% | growth inhibition (GI) [22]: <10% | growth inhibition (GI) [23]: <10% | growth inhibition (GI) [24]: <10% | growth inhibition (GI) [25]: <10% | growth inhibition (GI) [26]: <10% | growth inhibition (GI) [27]: <10% | growth inhibition (GI) [28]: <10% | growth inhibition (GI) [29]: <10% | growth inhibition (GI) [30]: <10% | growth inhibition (GI) [31]: 11.7% | growth inhibition (GI) [32]: <10% | growth inhibition (GI) [33]: 20.3% | growth inhibition (GI) [34]: 10.4% | growth inhibition (GI) [35]: <10% | growth inhibition (GI) [36]: <10% | growth inhibition (GI) [37]: <10% | growth inhibition (GI) [38]: <10% | growth inhibition (GI) [39]: <10% | growth inhibition (GI) [40]: <10% | growth inhibition (GI) [41]: <10% | growth inhibition (GI) [42]: <10% | growth inhibition (GI) [43]: <10% | growth inhibition (GI) [44]: <10% | growth inhibition (GI) [45]: <10% | growth inhibition (GI) [46]: 34.4% | growth inhibition (GI) [47]: 21.1% | growth inhibition (GI) [48]: <10% | growth inhibition (GI) [49]: <10% | growth inhibition (GI) [50]: <10% | growth inhibition (GI) [51]: 19% | growth inhibition (GI) [52]: <10% | growth inhibition (GI) [53]: <10% | growth inhibition (GI) [54]: 16.4%

Cn1cc(NC(=O)c2cc(NC(=O)CNC(=N)N)cn2C)cc1C(=O)NCCC(=N)N [NETROPSIN]
growth inhibition (GI) [1]: 15.3% | growth inhibition (GI) [2]: 12.6% | growth inhibition (GI) [3]: 25.1% | growth inhibition (GI) [4]: 28.9% | growth inhibition (GI) [5]: <10% | growth inhibition (GI) [6]: 10.3% | growth inhibition (GI) [7]: 19.5% | growth inhibition (GI) [8]: 10.9% | growth inhibition (GI) [9]: <10% | growth inhibition (GI) [10]: 14.5% | growth inhibition (GI) [11]: 13.9% | growth inhibition (GI) [12]: 11.1% | growth inhibition (GI) [13]: 28.2% | growth inhibition (GI) [14]: <10% | growth inhibition (GI) [15]: <10% | growth inhibition (GI) [16]: 10.8% | growth inhibition (GI) [17]: <10% | growth inhibition (GI) [18]: <10% | growth inhibition (GI) [19]: <10% | growth inhibition (GI) [20]: 14.4% | growth inhibition (GI) [21]: <10% | growth inhibition (GI) [22]: 10.5% | growth inhibition (GI) [23]: 29.8% | growth inhibition (GI) [24]: <10% | growth inhibition (GI) [25]: <10% | growth inhibition (GI) [26]: 12.4% | growth inhibition (GI) [27]: <10% | growth inhibition (GI) [28]: <10% | growth inhibition (GI) [29]: <10% | growth inhibition (GI) [30]: <10% | growth inhibition (GI) [31]: 23.7% | growth inhibition (GI) [32]: <10% | growth inhibition (GI) [33]: 29% | growth inhibition (GI) [34]: 17.4% | growth inhibition (GI) [35]: <10% | growth inhibition (GI) [36]: <10% | growth inhibition (GI) [37]: <10% | growth inhibition (GI) [38]: <10% | growth inhibition (GI) [39]: 17% | growth inhibition (GI) [40]: <10% | growth inhibition (GI) [41]: <10% | growth inhibition (GI) [42]: 28.9% | growth inhibition (GI) [43]: <10% | growth inhibition (GI) [44]: <10% | growth inhibition (GI) [45]: <10% | growth inhibition (GI) [46]: 30.6% | growth inhibition (GI) [47]: 17.8% | growth inhibition (GI) [48]: 13.7% | growth inhibition (GI) [49]: 23.4% | growth inhibition (GI) [50]: 12.9% | growth inhibition (GI) [51]: 25.2% | growth inhibition (GI) [52]: 25.7% | growth inhibition (GI) [53]: 33.2% | growth inhibition (GI) [54]: 10.7%
